Assay: Pharmacokinetic properties from the literature
Type: in vivo
Conditions: Minimal PBPK model; Derived using WinNonLin, ref Huang et al. (1986)
Description: Compound-specific physicochemical properties (e.g., pKa, fraction unbound in plasma, etc.) are detailed in Table S1B and were used to parameterize each model.

Vss: 0.345 L/kg
Structure (SMILES): CC(=O)N1CCN(c2ccc(OCC3COC(Cn4ccnc4)(c4ccc(Cl)cc4Cl)O3)cc2)CC1 (stereo not shown) [Ketoconazole]

Reference: paper PMC13476077, “Systematic comparison of temporal hepatotoxicant-induced gene network responses across 3 liver test systems” (Toxicological Sciences, 2026)
